Source: ChEMBL document CHEMBL1201862, “PubChem BioAssay data set” (2004)
“And” between values parts separate entries of the source, which are not always exact repeats. Equal values may be shown once. The source made the active and inactive calls.

Experiments:
[1] = biological target: Induced myeloid leukemia cell differentiation protein Mcl-1 (Homo sapiens, UniProt Q07820); format: functional
[2] = biological target: T1, Mannose-6-phosphate isomerase (Homo sapiens, UniProt P34949); experiment: human PMI inhibitors, high substrate, primary screen, biochemical, fluorescence intensity, high mannose 6-phosphate (AID 1220)
T1 sequence (P34949 whole entry): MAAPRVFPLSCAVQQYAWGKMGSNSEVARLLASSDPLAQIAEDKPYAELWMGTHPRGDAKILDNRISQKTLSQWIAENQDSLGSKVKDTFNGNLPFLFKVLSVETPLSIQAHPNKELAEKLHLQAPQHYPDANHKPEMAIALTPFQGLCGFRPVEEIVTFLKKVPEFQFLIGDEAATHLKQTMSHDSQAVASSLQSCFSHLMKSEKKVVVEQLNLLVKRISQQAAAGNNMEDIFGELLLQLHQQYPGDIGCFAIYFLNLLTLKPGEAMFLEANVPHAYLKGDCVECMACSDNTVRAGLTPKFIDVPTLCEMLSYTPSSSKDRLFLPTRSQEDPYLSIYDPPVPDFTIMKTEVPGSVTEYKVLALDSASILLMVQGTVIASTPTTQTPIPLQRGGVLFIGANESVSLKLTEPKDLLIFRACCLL

[3] = biological target: DNA dC->dU-editing enzyme APOBEC-3A (Homo sapiens, UniProt P31941); experiment: APOBEC3A DNA deaminase inhibitors, dose response, biochemical (AID 504722); format: functional
[4] = biological target: Glucose-6-phosphate 1-dehydrogenase (Homo sapiens, UniProt P11413); experiment: human G6PD enzyme inhibitors, dose response, selectivity assay for P. falciparum G6PD inhibitor project, biochemical, fluorescence (AID 504792); format: functional
[5] = biological target: DNA dC->dU-editing enzyme APOBEC-3G (Homo sapiens, UniProt Q9HC16); experiment: Dose Response confirmation of small molecule APOBEC3G DNA Deaminase Inhibitors via a fluorescence-based single-stranded DNA deaminase assay. [Related pubchem assays (depositor defined):AID493012, AID493028]; format: functional
Hexokinase HKDC1 = biological target: T2, Hexokinase HKDC1 (Homo sapiens, UniProt Q2TB90); experiment: HKDC1 hexokinase inhibitors, dose response, biochemical, W721R variant (AID 504729); format: functional
T2 sequence (Q2TB90 whole entry): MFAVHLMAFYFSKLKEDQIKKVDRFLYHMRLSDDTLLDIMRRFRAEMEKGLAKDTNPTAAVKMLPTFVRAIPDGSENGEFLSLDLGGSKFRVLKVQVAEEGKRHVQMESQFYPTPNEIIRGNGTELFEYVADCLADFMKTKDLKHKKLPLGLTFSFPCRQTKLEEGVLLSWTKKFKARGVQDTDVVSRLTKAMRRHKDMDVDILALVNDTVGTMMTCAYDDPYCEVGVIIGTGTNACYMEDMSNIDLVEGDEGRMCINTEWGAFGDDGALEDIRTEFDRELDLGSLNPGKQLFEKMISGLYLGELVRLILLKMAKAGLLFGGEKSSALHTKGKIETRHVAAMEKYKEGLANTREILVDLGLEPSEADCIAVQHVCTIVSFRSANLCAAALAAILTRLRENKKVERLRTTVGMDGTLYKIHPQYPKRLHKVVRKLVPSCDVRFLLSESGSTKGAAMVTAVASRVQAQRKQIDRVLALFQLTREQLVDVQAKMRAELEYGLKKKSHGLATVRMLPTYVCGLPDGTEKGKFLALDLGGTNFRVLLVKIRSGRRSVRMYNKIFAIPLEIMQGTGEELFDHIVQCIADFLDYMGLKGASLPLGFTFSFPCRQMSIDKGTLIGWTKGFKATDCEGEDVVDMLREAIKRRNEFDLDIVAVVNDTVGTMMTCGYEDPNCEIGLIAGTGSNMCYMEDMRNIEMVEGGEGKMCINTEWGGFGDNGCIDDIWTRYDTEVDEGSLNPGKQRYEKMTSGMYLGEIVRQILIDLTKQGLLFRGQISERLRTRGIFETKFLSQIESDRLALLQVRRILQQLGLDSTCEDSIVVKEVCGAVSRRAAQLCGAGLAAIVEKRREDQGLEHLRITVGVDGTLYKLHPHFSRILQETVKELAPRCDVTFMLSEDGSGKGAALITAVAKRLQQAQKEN

[6] = biological target: DNA damage-inducible transcript 3 protein (Mus musculus, UniProt P35639); format: functional, Cricetulus griseus
[7] = Shn3 3'UTR reporter inhibitors, dose response, cell-based, Clone20 osteoblasts, firefly luciferase, cherry-picked (AID 624132); format: functional;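 further: firefly luciferase luminescence from reporter carrying the Shn3 3'UTR in osteoblasts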
[8] = HepG2 cell cytotoxicity, dose response, cytotoxicity control for Shn3 inhibitor project, CellTiter-Glo, cherry-picked (AID 624134); format: functional, cell-based
[9] = control 3'UTR Renilla luciferase suppression, dose response, counter-screen for Shn3 inhibitor project, cell-based, Clone20-Shn3RL, cherry-picked (AID 624133); format: functional
Paired box protein Pax-8 = Paired box protein Pax-8 (Homo sapiens, UniProt Q06710); experiment: inhibitors of PAX8-driven TPO luciferase reporter, dose response, RMG-I cells, cherry-pick (AID 687027); format: functional, cell-based;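 further: luciferase reporter driven by Pax8 target thyroperoxidase promoter measured by SteadyGlo luminescence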
Caspase-6 = biological target: T3, Caspase-6 (Homo sapiens, UniProt P55212); experiment: human caspase-6 inhibitors, dose response, biochemical, VEID-R110 fluorescence, cherry-pick (AID 720632)
T3 sequence (P55212 whole entry): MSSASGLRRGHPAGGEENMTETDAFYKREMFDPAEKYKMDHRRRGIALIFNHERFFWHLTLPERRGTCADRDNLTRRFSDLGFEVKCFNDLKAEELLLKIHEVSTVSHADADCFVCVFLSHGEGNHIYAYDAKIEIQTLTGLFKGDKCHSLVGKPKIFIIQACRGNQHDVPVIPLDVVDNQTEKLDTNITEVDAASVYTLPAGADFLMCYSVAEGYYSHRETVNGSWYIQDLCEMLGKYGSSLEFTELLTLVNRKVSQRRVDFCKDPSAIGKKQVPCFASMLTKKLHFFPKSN

[10] = inhibitors of PGC1a acetylation in cells, dose response, cell-based, cherry-picked samples (AID 720514); format: functional;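 further: potency may reflect raised or lowered acetylation signal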
[11] = test system: Streptococcus sp. 'group A'; experiment: growth inhibition of control SK(-) GAS strain, dose response, counter-screen for streptokinase expression inhibitor project, luminescence, kanamycin, BacTiterGlo, confirmation (AID 1900); format: functional, organism-based
Beta-galactosidase = Beta-galactosidase (Escherichia coli, UniProt Q8VNN2); experiment: PubChem AID 485352; format: functional
[12] = inhibitors of intracellular T. cruzi replication, confirmation, NIH3T3 host cells, beta-gal luminescence (AID 2044); format: functional, cell-based;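 further: intracellular parasites grown in NIH/3T3 mouse fibroblasts as host cells; luminescent beta-galactosidase reporter signal from transgenic T. cruzi replicating inside host cells; inhibitors lower the luminescence signal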
[13] = biological target: T4, Type-1 angiotensin II receptor (Homo sapiens, UniProt P30556); experiment: AT1 receptor antagonists, dose response, selectivity assay for APJ receptor antagonist project, cell-based, uHTS hits (AID 463214); format: functional;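 further: antagonist potency against angiotensin II stimulated AT1 response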
T4 sequence (P30556 whole entry): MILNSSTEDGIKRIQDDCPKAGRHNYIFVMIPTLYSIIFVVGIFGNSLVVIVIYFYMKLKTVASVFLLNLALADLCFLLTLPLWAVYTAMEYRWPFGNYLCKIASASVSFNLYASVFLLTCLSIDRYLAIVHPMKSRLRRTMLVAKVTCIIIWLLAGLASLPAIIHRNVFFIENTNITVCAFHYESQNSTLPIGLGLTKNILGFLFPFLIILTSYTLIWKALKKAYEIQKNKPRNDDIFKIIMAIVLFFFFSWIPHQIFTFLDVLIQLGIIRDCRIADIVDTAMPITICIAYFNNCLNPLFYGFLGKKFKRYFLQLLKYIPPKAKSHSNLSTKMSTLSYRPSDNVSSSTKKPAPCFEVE

[14] = cytotoxicity toward NIH3T3 fibroblasts, dose response, counter-screen, cell-based, ATP luminescence, mouse fibroblasts (AID 2010); format: functional;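 further: cells exposed to compound for about 90 hours before reading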
Streptococcus = experiment: Group A Streptococcus viability loss, dose response, counter-screen for streptokinase expression inhibitor project, luminescence, BacTiterGlo (AID 1915); format: functional, organism-based;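 further: potency for reduction of bacterial viability or growth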
[15] = THP-1 cell cytotoxicity, dose response, cytotoxicity control for non-replicating M. tuberculosis project (AID 489025); format: functional
[16] = HepG2 cell cytotoxicity, dose response, cytotoxicity control for non-replicating M. tuberculosis project (AID 489018); format: functional; conditions: Mycobacterium tuberculosis
[17] = Vero E6 cell cytotoxicity, dose response, cytotoxicity control for non-replicating M. tuberculosis project, secondary assay (AID 492998); format: functional, VeroE6; conditions: Vero C1008
cells = format: functional
[18] = biological target: T5, Aryl hydrocarbon receptor (Homo sapiens, UniProt P35869); experiment: Luminescence-based cell-based high throughput dose response assay for activators of the Aryl Hydrocarbon Receptor (AHR). [Related pubchem assays: 2796 (Primary screen (AHR activators in singlicate)), 2845 (Confirmation screen (AHR activators in triplicate)), 434939 (Counterscreen (PXR activators in triplicate)), 2804 (Summary (AHR activators))]; format: ADME
T5 sequence (P35869 whole entry): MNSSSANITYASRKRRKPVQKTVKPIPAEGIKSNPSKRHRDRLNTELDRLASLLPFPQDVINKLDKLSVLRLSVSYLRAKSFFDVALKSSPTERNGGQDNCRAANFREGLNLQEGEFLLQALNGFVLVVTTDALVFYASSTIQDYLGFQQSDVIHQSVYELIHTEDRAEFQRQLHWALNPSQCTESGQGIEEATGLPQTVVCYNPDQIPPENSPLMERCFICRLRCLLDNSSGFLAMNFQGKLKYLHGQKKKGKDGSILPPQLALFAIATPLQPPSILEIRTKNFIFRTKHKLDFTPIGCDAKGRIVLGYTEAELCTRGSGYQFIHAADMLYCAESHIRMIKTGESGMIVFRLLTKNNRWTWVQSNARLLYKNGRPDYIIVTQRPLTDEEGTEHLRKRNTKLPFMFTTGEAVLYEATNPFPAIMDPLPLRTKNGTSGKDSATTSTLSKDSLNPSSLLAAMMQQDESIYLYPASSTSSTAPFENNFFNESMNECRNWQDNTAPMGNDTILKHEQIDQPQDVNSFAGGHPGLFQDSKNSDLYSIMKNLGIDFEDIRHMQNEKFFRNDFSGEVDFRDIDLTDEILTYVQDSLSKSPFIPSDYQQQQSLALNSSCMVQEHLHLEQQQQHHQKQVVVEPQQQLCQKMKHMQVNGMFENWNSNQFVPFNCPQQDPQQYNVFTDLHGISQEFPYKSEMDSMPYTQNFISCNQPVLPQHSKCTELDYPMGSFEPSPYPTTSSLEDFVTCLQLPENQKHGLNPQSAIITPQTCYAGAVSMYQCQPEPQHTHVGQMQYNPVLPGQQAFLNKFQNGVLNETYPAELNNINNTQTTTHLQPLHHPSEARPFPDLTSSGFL

Trypsin = Trypsin (Sus scrofa, UniProt P00761); experiment: porcine trypsin inhibitors, dose response, selectivity assay for Rce1 protease inhibitor project, biochemical, quenched peptide fluorescence, cherry-pick (AID 488789)
CAAX prenyl protease 2 = biological target: T6, CAAX prenyl protease 2 (Saccharomyces cerevisiae S288c, UniProt Q03530); format: biochemical
T6 sequence (Q03530 whole entry): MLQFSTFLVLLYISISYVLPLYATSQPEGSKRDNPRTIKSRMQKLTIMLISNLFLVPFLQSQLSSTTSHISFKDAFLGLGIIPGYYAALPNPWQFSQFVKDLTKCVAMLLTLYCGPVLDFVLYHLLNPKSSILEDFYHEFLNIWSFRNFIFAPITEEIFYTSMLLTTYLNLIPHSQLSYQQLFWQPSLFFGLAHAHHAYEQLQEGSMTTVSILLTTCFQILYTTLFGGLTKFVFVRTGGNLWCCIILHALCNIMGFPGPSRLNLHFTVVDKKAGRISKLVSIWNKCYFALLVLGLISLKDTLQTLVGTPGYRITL

Bcl-2-related protein A1 = biological target: T7, Bcl-2-related protein A1 (Mus musculus, UniProt Q07440); format: functional;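 further: confirmatory dose–response counterscreen on Bfl-1, used to check hits from a UBC13 polyubiquitin inhibitor campaign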
T7 sequence (Q07440 whole entry): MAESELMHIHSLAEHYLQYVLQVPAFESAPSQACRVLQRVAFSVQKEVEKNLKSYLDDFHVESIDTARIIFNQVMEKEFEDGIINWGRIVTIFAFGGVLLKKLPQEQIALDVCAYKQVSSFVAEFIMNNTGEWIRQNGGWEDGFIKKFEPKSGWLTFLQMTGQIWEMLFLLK

[19] = biological target: T8, Ubiquitin-conjugating enzyme E2 N (Homo sapiens, UniProt P61088); format: functional
T8 sequence (P61088 whole entry): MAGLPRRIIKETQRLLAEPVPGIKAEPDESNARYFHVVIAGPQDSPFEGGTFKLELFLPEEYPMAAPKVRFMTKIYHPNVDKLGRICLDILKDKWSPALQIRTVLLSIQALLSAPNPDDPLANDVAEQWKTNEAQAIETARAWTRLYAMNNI

[20] = biological target: T8, Ubiquitin-conjugating enzyme E2 N; format: functional; remark: listed apart in the source

Chain of DNA damage-inducible transcript 3 protein (P35639 whole entry): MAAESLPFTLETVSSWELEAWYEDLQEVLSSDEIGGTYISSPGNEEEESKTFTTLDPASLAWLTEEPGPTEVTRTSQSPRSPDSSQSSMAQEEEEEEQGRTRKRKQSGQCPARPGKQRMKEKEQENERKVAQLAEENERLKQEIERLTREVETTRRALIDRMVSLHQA
Chain of Induced myeloid leukemia cell differentiation protein Mcl-1 (Q07820 whole entry): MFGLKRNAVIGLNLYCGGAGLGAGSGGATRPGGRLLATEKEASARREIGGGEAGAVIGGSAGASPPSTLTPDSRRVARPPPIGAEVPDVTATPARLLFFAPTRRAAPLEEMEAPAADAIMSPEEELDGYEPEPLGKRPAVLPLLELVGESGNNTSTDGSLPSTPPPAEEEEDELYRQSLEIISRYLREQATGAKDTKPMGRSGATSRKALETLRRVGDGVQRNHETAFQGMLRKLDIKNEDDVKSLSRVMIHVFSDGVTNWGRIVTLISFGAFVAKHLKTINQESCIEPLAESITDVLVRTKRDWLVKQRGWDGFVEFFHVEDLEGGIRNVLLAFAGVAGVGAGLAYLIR
Chain of Paired box protein Pax-8 (Q06710 whole entry): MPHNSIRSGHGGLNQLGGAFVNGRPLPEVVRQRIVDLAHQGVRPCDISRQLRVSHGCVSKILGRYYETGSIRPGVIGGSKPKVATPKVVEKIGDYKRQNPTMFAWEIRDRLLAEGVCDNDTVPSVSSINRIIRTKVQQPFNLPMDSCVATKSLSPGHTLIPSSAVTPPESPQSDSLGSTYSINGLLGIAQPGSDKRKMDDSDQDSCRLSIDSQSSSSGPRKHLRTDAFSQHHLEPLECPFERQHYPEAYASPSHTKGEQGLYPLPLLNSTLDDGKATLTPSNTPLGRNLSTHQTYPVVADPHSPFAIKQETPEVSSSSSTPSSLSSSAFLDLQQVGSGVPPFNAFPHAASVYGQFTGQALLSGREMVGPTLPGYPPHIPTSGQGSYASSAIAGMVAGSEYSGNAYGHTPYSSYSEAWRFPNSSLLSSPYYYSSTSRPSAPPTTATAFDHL
Chain of DNA dC->dU-editing enzyme APOBEC-3A (P31941 whole entry): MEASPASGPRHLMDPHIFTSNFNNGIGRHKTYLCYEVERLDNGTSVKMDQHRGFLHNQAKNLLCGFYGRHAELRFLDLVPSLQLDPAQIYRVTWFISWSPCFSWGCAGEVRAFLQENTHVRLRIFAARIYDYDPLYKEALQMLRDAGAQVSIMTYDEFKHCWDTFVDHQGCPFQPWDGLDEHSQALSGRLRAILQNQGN
Chain of Beta-galactosidase (Q8VNN2 whole entry): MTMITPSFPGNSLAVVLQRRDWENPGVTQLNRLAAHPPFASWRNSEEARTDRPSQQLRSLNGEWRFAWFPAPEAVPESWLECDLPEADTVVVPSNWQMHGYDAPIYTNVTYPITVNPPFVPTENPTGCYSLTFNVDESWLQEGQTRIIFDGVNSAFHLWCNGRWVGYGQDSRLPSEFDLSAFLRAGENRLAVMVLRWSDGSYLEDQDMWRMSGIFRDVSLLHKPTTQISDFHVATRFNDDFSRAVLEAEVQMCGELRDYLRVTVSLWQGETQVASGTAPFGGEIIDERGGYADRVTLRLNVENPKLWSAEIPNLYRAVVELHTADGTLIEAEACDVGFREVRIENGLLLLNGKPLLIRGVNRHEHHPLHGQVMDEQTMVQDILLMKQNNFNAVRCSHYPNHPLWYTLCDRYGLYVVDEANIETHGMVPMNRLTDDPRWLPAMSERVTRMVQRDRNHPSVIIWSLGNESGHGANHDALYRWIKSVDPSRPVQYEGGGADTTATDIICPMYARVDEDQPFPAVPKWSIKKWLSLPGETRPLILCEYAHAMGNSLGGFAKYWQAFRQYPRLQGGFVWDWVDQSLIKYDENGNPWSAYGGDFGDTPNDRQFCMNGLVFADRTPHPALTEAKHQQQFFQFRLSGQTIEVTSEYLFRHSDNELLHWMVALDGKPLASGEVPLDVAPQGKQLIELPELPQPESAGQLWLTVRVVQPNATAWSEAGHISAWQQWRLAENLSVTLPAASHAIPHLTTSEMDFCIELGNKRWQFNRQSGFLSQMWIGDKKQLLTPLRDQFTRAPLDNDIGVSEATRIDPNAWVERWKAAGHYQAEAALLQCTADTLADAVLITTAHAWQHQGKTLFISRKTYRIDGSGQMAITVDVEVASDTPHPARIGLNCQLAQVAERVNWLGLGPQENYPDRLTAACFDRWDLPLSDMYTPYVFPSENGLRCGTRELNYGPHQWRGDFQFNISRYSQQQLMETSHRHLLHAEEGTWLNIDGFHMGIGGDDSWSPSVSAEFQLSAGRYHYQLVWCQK
Chain of Trypsin (P00761 whole entry): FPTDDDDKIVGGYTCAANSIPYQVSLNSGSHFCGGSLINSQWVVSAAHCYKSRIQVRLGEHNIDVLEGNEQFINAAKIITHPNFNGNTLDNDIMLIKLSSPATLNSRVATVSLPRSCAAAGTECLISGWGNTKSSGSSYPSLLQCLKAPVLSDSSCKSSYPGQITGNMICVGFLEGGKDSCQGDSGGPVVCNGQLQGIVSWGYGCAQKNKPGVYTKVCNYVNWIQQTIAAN
Chain of Glucose-6-phosphate 1-dehydrogenase (P11413 whole entry): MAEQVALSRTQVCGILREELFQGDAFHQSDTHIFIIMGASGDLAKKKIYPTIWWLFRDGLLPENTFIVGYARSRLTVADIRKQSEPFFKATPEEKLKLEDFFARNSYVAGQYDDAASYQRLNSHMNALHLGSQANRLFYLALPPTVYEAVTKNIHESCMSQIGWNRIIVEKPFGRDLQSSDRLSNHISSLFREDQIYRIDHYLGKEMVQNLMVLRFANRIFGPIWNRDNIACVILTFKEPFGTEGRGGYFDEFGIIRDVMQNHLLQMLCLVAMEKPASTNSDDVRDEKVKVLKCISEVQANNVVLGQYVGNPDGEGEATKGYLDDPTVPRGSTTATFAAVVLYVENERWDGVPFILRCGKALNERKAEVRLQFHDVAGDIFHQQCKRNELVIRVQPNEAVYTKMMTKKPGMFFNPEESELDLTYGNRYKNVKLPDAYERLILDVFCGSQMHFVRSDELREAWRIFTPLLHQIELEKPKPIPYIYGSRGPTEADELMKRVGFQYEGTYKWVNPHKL
Chain of DNA dC->dU-editing enzyme APOBEC-3G (Q9HC16 whole entry): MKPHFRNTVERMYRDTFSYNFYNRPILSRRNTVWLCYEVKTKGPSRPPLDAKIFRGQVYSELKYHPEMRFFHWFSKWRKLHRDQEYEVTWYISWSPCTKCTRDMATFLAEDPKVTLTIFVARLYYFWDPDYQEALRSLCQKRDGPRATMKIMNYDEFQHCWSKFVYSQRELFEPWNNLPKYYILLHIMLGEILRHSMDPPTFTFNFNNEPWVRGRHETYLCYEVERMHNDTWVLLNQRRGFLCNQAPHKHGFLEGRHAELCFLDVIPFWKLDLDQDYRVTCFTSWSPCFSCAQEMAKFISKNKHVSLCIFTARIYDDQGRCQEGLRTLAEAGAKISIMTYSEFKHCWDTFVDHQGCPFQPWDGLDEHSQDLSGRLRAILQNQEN

O=S(=O)(Nc1cc(Sc2nc[nH]n2)c(O)c2ccccc12)c1ccccc1
IC50 [1]: 11.7 µM (active)
IC50 [2]: 3.32 µM (active)
IC50 [3]: > 100 µM (inactive)
IC50 [4]: 21.1 µM (inactive)
IC50 [5]: 3.16 µM (active)
IC50 (Hexokinase HKDC1): 9.93 µM (active)
Absolute IC50 (CHOP) [6]: 10 µM
AC50 [7]: 7.55 µM (active)
AC50 [8]: 26.1 µM (active)
AC50 [9]: 12.4 µM (active)
AC50 (Paired box protein Pax-8): 9.52 µM (active)
AC50 (Caspase-6): 0.911 µM (active)
AC50 [10]: 9.88 µM (active)

N=C1S/C(=C\c2ccco2)C(=O)N1c1nccs1
EC50 [11]: 3.66 µM (active)
EC50 (Beta-galactosidase): > 40 µM (inactive)
EC50 [12]: 2.11 µM (active)
IC50 [13]: 7.86 µM (active)
EC50 [14]: > 30 µM (not active)
EC50 (Streptococcus): 9.61 µM (active)
CC50 [15]: 15.7 µM (active)
CC50 [16]: > 20 µM (active)
CC50 [17]: 9.33 µM (active)
IC50 (cells): 0.2 µM (active)

CCOC(=O)Cc1cc(-c2ccc(O)cc2)nc2ccc3ccccc3c12
EC50 [18]: 1.47 µM (active)
Absolute IC50 (CHOP) [6]: 10 µM

c1ccc(-n2nnnc2SCc2cn3cccnc3n2)cc1
AC50 (Trypsin): 18.6 µM (active)
AC50 (CAAX prenyl protease 2): 10.5 µM (active)

C[C@@H]1O[C@@H](O[C@H]2[C@H](Oc3cc(O)c4c(c3)O[C@H](c3ccc(O)cc3)CC4=O)O[C@H](CO)[C@@H](O)[C@@H]2O)[C@H](O)[C@H](O)[C@H]1O [NARINGIN]
IC50 (Bcl-2-related protein A1): > 20 µM (inactive)
IC50 [19]: 12.2 µM (active) and 8.7 µM (active)
IC50 [20]: 5.77 µM (active) and 6.66 µM (active)
